{"source": "patent US9914755B2", "about": "“Cyclosporin derivatives wherein the MeBmt sidechain has been cyclized” (Allergan, Inc., priority 2015, dated 2018)", "format_in_all_cases": "biochemical", "key": {"[1]": {"target": "T1, Human recombinant cyclophilin A (CypA) (Homo sapiens, UniProt P62937)", "T1 construct": "purchased Sigma C3805", "T1 sequence (P62937 whole entry)": "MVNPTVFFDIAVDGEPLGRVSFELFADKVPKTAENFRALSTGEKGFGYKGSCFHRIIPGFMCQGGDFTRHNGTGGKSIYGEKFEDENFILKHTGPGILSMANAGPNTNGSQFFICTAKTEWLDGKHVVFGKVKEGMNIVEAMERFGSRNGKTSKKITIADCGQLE", "experiment": "Protease-free PPIase assay, cyclophilin A", "conditions": "human recombinant CypA, 10 °C, SUC-AAPF-pNA substrate; read-out: CypA Protease-free PPIase Assay Ki", "experimental": "(§1) Protease-Free PPIase Assay The protease-free PPIase assay measures the rate of cis to trans conversion of a peptide substrate catalyzed by the enzyme cyclophilin A or D. Addition of a cyclophilin inhibitor (e.g., a test compound) slows the catalyzed rate and a Ki value is obtained. 35 mM HEPES pH 7.8, filtered through a 0.2 μm filter. 50 μM DTT was added prior to use each day and then the buffer was stored on ice. […] Human recombinant 6-His tagged cyclophilin D (CypD), prepared by the University of Edinburgh, was used to generate CypD inhibition data. Succinimide-[…]-nitroanilide (SUC-AAPF-pNA) (from Bachem AG, L-1400), 20 mg/ml prepared in 0.5 M LiCl in trifluoroethanol. All readings were taken with an Agilent 8453 Spectrophotometer which consisted of a cuvette holder, stirrer and chiller to maintain a stirred cuvette temperature of 10.0±0.1° C. The temperature was monitored by the use of temperature probe. […] The inhibitor was diluted in 100% DMSO, and then added to the assay to a maximum final concentration of 0.5% DMSO in the assay. […] The absorbance was measured at 330 nm for 300 s or 500 s for blank runs (NOTE: the substrate was added in one quick injection and the measurements started immediately to minimize mixing errors). A first order rate equation was fitted to the absorbance data, for each concentration of inhibitor, to obtain the rate constant (the first 10 to 15 seconds were excluded, as mixing causes errors in this portion of the curve). The catalytic rate was calculated from the enzymatic rate constant minus the background rate constant. An exponential curve was generated using the catalytic rate constants versus the inhibitor concentration to obtain the Ki value for the inhibitor. The Ki value is indicative of the binding affinity between the test compound and cyclophilin A."}, "[2]": {"target": "T2, Human recombinant 6-His tagged cyclophilin D (CypD) (Homo sapiens, UniProt P30405)", "T2 construct": "6-His", "T2 sequence (P30405 30-207)": "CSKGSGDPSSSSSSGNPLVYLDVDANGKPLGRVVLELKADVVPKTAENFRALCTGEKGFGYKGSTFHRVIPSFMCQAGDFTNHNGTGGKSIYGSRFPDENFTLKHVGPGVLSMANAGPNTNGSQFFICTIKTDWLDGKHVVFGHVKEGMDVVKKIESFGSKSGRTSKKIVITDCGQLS", "experiment": "Protease-free PPIase assay, cyclophilin D", "conditions": "human recombinant 6-His CypD, 10 °C, SUC-AAPF-pNA substrate; read-out: CypD Protease-free PPIase Assay Ki", "experimental": "as §1"}, "calcineurin": {"target": "T3, calcineurin (Homo sapiens, UniProt P62937+P63098+Q08209)", "T3 construct": "purchased Enzo Life Sciences BML-AK804", "experiment": "Calcineurin Phosphatase (CaN) Assay", "conditions": "in the presence of CypA, 1:1 complex of inhibitor with CypA", "from_the_text": "Calcineurin Phosphatase (CaN) Assay\nThe calcineurin phosphatase assay is a means for estimating the immunosuppressive potential of a test compound. Calcineurin is a serine-threonine protein phosphatase that on activation dephosphorylates members of the nuclear factor of activated T cells (NFAT), which are important in T lymphocyte activation.\nTo investigate the immunosuppressive potential of exemplary compounds of Formula I, which are cyclosporin analogs, their ability to inhibit calcineurin activity was measured in the presence and absence of CypA.\nThe CaN assay kit used is based on a colorimetric assay for measuring calcineurin phosphatase activity, and it is commercially available (Enzo Life Sciences and Calbiochem). Calmodulin is also required for calcineurin activity, and RII phosphopeptide is used as an efficient peptide substrate for calcineurin. […] The detection of free phosphate released is based on the classic Malachite green assay.\nEnzo Life Sciences CaN Assay Kit: BML-AK804\nFor samples ‘without CypA’, a 4-point dilution series of the inhibitor was prepared in duplicate to obtain a final assay concentration of 10, 1, 0.1 and 0.01 μM. For samples ‘with CypA’, a 7-point dilution series was prepared to obtain a 1:1 complex of the inhibitor with CypA; the inhibitor and CypA final assay concentrations of 10, 3.33, 1.11, 0.37, 0.12, 0.04, 0.014 μM were prepared.\nusing the half area 96 well plates supplied with the kit, 10 μl UPW was added to duplicate wells to provide the non-inhibited control. 10 μl of the inhibitor or the inhibitor/CypA complex was added to the appropriate sample wells. 25 μl of the 2× assay buffer with calmodulin (CaM) was added to all wells, then 5 μl of calcineurin phosphatase (CaN) was added to all wells (40 U per well final concentration) except duplicate ‘no calcineurin blank’ wells to which 5 μL 1× assay buffer was added. The assay plate was placed in an oven at 30° C. for 15 minutes to equilibrate to the reaction temperature. The reaction was started by the addition of 10 μl RII-peptide (0.15 mM final concentration). The reaction was allowed to proceed at 30° C. for a time period in which the reaction is linear for about 60 minutes. The reaction was then terminated by adding 100 μl of the Malachite Green reagent. The color was allowed to develop for 15-30 minutes at room temperature before the absorbance at 620 nm was measured using a plate reader (Molecular Devices—SpectraMax M5). The data were analyzed by subtracting ‘no calcineurin blank’ from all the absorbance readings and plotting the background corrected absorbances against Log10 inhibitor concentration. A sigmoidal-dose response curve was fitted to the data using GraphPad Prism Software.\nIt exerts its immunosuppressive activity by binding to CypA to form a complex, which then binds to calcineurin and thereby inhibits calcineurin activity."}}, "note": "Starred links: 1 amine or outer side, 2 acyl side, 3 side chain; linkers in the order of their positions; H or OH if unused. Non-standard residues stand in square brackets, D forms with d. Residues, ends and D or L forms follow the SMILES beside them. X1 = C[C@@H]1CCO[C@H]1[C@H](C(=O)[*:2])N(C)[*:1]; d(aThr) = C[C@@H](O)[C@@H](N)C(=O)O; NMeL = CN[C@@H](CC(C)C)C(=O)O; dNMeL = CN[C@H](CC(C)C)C(=O)O; dNMeV = CN[C@@H](C(=O)O)C(C)C; dNMeA = CN[C@H](C)C(=O)O", "data": [{"smiles": "CC[C@H]1NC(=O)[C@@H]([C@@H]2OCC[C@H]2C)N(C)C(=O)[C@@H](C(C)C)N(C)C(=O)[C@@H](CC(C)C)N(C)C(=O)[C@@H](CC(C)C)N(C)C(=O)[C@H](C)NC(=O)[C@@H](C)NC(=O)[C@@H](CC(C)C)N(C)C(=O)[C@@H](C(C)C)NC(=O)[C@H](CC(C)C)N(C)C(=O)CN(C)C1=O", "note": "[Compound 4, [(2S)-2-(methylamino)-2-[(2R,3R)-3-methyltetrahydrofuran-2-yl]acetic acid]^1 cyclosporin A]", "values": [{"measurement": "Ki", "setting": "[1]", "result": 509, "unit": "nM"}, {"measurement": "Ki", "setting": "[2]", "result": 920, "unit": "nM"}, {"measurement": "IC50", "setting": "calcineurin", "result": "> 10000", "unit": "nM"}]}, {"smiles": "CC(C)C[C@@H]1C(=O)N(C)[C@H](CC(C)C)C(=O)N(C)[C@H](C(C)C)C(=O)N(C)[C@H]([C@@H]2OCC[C@H]2C)C(=O)N[C@H]([C@@H](C)O)C(=O)N(C)[C@H](C)C(=O)N(C)[C@@H](CC(C)C)C(=O)N[C@H](C(C)C)C(=O)N(C)[C@H](CC(C)C)C(=O)N[C@H](C)C(=O)N[C@@H](C)C(=O)N1C", "note": "[Compound 11, [(2S)-2-(methylamino)-2-[(2R,3R)-3-methyltetrahydrofuran-2-yl]acetic acid]^1 [(R)-methyl-Sar]^3 cyclosporin C] (cyclo(A[dNMeL][dNMeL][dNMeV][X1][d(aThr)][dNMeA][NMeL][dV][dNMeL][dA]))", "values": [{"measurement": "Ki", "setting": "[1]", "result": 270, "unit": "nM"}, {"measurement": "Ki", "setting": "[2]", "result": 18, "unit": "nM"}, {"measurement": "IC50", "setting": "calcineurin", "result": "> 10000", "unit": "nM"}]}, {"smiles": "CC[C@H]1NC(=O)[C@@H]([C@@H]2OC(O)C[C@H]2C)N(C)C(=O)[C@@H](C(C)C)N(C)C(=O)[C@@H](CC(C)C)N(C)C(=O)[C@@H](CC(C)C)N(C)C(=O)[C@H](C)NC(=O)[C@@H](C)NC(=O)[C@@H](CC(C)C)N(C)C(=O)[C@@H](C(C)C)NC(=O)[C@H](CC(C)C)N(C)C(=O)[C@@H](C)N(C)C1=O", "note": "(stereo partly drawn) [Compound 12, [(2R)-2-[(2R,3R)-5-hydroxy-3-methyl-tetrahydrofuran-2-yl]-2-(methylamino)acetic acid]^1[(R)-methyl-Sar]^3 cyclosporin A]", "values": [{"measurement": "Ki", "setting": "[1]", "result": 49, "unit": "nM"}, {"measurement": "Ki", "setting": "[2]", "result": 12, "unit": "nM"}, {"measurement": "IC50", "setting": "calcineurin", "result": "> 10000", "unit": "nM"}]}, {"smiles": "CC(C)C[C@@H]1C(=O)N(C)[C@H](CC(C)C)C(=O)N(C)[C@H](C(C)C)C(=O)N(C)[C@H]([C@@H]2OC(O)C[C@H]2C)C(=O)N[C@H](C(C)C)C(=O)N(C)CC(=O)N(C)[C@@H](CC(C)C)C(=O)N[C@H](C(C)C)C(=O)N(C)[C@H](CC(C)C)C(=O)N[C@H](C)C(=O)N[C@@H](C)C(=O)N1C", "note": "(stereo partly drawn) [Compound 13, [(2S)-2-[(2R,3R)-5-Hydroxy-3-methyl-tetrahydrofuran-2-yl]-2-(methylamino)acetic acid]^1 cyclosporin D]", "values": [{"measurement": "Ki", "setting": "[1]", "result": 414, "unit": "nM"}, {"measurement": "Ki", "setting": "[2]", "result": 840, "unit": "nM"}, {"measurement": "IC50", "setting": "calcineurin", "result": "> 10000", "unit": "nM"}]}, {"smiles": "CC[C@H]1NC(=O)[C@@H]([C@@H]2OCCC[C@H]2C)N(C)C(=O)[C@@H](C(C)C)N(C)C(=O)[C@@H](CC(C)C)N(C)C(=O)[C@@H](CC(C)C)N(C)C(=O)[C@H](C)NC(=O)[C@@H](C)NC(=O)[C@@H](CC(C)C)N(C)C(=O)[C@@H](C(C)C)NC(=O)[C@H](CC(C)C)N(C)C(=O)[C@@H](C)N(C)C1=O", "note": "[Compound 15, [(2S)-2-(methylamino)-2-[(2R,3R)-3-methyltetrahydropyran-2-yl]acetic acid]^1 [(R)-methyl-Sar]^3 cyclosporin A]", "values": [{"measurement": "Ki", "setting": "[1]", "result": 38, "unit": "nM"}, {"measurement": "Ki", "setting": "[2]", "result": 46, "unit": "nM"}, {"measurement": "IC50", "setting": "calcineurin", "result": 5290, "unit": "nM"}]}, {"smiles": "CC[C@H]1NC(=O)[C@@H]([C@@H]2OCCCC[C@H]2C)N(C)C(=O)[C@@H](C(C)C)N(C)C(=O)[C@@H](CC(C)C)N(C)C(=O)[C@@H](CC(C)C)N(C)C(=O)[C@H](C)NC(=O)[C@@H](C)NC(=O)[C@@H](CC(C)C)N(C)C(=O)[C@@H](C(C)C)NC(=O)[C@H](CC(C)C)N(C)C(=O)CN(C)C1=O", "note": "[Compound 16, [(2S)-2-(methylamino)-2-[(2R,3R)-3-methyloxepan-2-yl]acetic acid]^1 cyclosporin A]", "values": [{"measurement": "Ki", "setting": "[1]", "result": 386, "unit": "nM"}, {"measurement": "Ki", "setting": "[2]", "result": 560, "unit": "nM"}, {"measurement": "IC50", "setting": "calcineurin", "result": 6670, "unit": "nM"}]}]}
